Measurements from ChEMBL document CHEMBL5260850, “The exploration of aza-quinolines as hematopoietic prostaglandin D synthase (H-PGDS) inhibitors with low brain exposure” (Bioorg Med Chem, 2020).
Converted amounts (≈) assume the structure as drawn.

Legend:
[1] = target: T1, Hematopoietic prostaglandin D synthase (Rattus norvegicus, UniProt O35543); experiment: Inhibition of H-PGDS in rat RBL cells assessed as reduction in A23187-induced PGD2 production pretreated for 30 mins followed by A23187 addition for 30 mins by RapidFire Mass spectrometry; assay type: cell-based
T1 sequence (O35543 whole entry): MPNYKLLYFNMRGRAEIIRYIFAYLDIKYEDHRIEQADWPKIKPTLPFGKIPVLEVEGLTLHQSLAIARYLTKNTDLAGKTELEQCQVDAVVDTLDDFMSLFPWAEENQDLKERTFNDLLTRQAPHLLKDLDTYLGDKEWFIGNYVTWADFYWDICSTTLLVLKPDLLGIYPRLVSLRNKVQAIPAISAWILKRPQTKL

[2] = Dissociation constant, pKa of the compound by UV spectroscopy or potentiometric analysis; assay type: physicochemical
[3] = Solubility of the compound in FaSSIF at pH 6.5 measured after 4 hrs by HPLC-UV analysis; assay type: ADME
Albumin = Albumin (Homo sapiens, UniProt P02768); experiment: Protein binding in human serum albumin by HPLC analysis; assay type: ADME, cell-free; conditions: read-out: PB (converted)
[4] = Terminal half life in mouse at 1 mg/kg, iv; assay type: ADME, organism-based; conditions: in vivo
[5] = Clearance in mouse at 1 mg/kg, iv; assay type: ADME, organism-based; conditions: in vivo
[6] = Volume of distribution at steady state in mouse at 1 mg/kg, iv; assay type: ADME, organism-based; conditions: in vivo, read-out: Vdss
[7] = Oral bioavailability in mouse at 3 mg/kg; assay type: ADME, organism-based; conditions: in vivo
[8] = Ratio of drug level in brain to blood in mouse at 1 mg/kg, iv; assay type: ADME, organism-based; conditions: read-out: BBR
[9] = Half life in mouse S9 fraction pretreated for 5 mins followed by incubation with NADP for 30 secs and measured upto 45 mins by LC-MS/MS analysis; assay type: ADME, subcellular; conditions: time 3030 sec
[10] = Toxicity in chronic eccentric muscle damage C57BL/6N mouse model assessed as seizure-like activity at >=10 mg/kg, po and measured after 4 days; assay type: organism-based; conditions: in vivo, 96 h, time 4 day
[11] = Toxicity in chronic eccentric muscle damage C57BL/6N mouse model assessed as adverse effects at <=6 mg/kg, po administered for 60 days; assay type: organism-based; conditions: in vivo, 1440 h, time 60 day
[12] = target: Hematopoietic prostaglandin D synthase (Homo sapiens, UniProt O60760); experiment: Inhibition of human H-PGDS expressed in Escherichia coli BL21 DE3 cells assessed as reduction in PGD2 production using PGH2 as substrate by RapidFire High Throughput Mass spectrometry
[13] = Dose normalized AUC in mouse at 3 mg/kg, po; assay type: ADME, organism-based; design: unit not given here; conditions: in vivo
[14] = Apparent permeability, Papp of the compound at pH 7.4 incubated for 3 hrs by AMP based liquid chromatography; assay type: ADME; conditions: not told
[15] = Half life in mouse liver microsomes pretreated for 5 mins followed by incubation with NADP for 30 secs and measured upto 45 mins by LC-MS/MS analysis; assay type: ADME, Microsome; conditions: time 3030 sec

Sequence of Albumin (P02768 whole entry): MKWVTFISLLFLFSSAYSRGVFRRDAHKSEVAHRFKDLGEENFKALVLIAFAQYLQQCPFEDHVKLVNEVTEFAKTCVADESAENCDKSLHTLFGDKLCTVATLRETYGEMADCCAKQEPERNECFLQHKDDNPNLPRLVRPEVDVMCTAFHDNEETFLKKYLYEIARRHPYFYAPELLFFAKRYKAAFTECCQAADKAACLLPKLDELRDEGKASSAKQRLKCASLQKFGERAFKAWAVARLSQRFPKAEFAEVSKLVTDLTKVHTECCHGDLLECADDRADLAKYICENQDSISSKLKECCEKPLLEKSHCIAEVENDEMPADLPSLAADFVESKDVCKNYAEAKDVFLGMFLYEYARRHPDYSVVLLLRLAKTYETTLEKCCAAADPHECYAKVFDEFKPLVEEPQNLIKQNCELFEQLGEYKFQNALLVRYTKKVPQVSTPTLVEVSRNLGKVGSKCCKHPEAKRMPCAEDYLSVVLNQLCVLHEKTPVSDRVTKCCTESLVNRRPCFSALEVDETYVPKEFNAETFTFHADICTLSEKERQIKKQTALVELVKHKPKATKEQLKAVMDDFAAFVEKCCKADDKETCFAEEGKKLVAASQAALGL
Sequence of Hematopoietic prostaglandin D synthase (Homo sapiens, UniProt O60760) (O60760 whole entry): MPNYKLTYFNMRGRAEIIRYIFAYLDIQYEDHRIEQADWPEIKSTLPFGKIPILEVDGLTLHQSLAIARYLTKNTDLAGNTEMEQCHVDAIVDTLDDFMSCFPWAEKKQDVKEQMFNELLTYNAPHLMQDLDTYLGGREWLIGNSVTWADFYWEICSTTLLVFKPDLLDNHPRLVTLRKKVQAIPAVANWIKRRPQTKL

| SMILES | EC50 [1] | pKa [2] | solubility at 4 h [3] | fraction unbound (Albumin) | beta t1/2 ([4]; iv, 1 mg/kg) | clearance [5] | Vd [6] | bioavailability [7] | Kp [8] | half-life [9] | Activity [10] | Activity [11] | IC50 [12] | AUC/dose [13] | Papp at 3 h [14] | half-life [15] | half-life ([4]; read-out: beta t1/2 (converted)) |
| --- | --- | --- | --- | --- | --- | --- | --- | --- | --- | --- | --- | --- | --- | --- | --- | --- | --- |
| CC(C)(O)[C@H]1CC[C@H](NC(=O)c2cnc3cc(OC(F)F)ccc3c2)CC1 | 160 nM | 2.43 | 70 µg/mL (≈ 185 µM) | 0.12 | 3.8 h | 5.6 mL/min/kg | 1.7 L/kg | 61% | 0.59 | > 3 h | Toxic | Non-Toxic |  |  |  |  |  |
| O=C(N[C@H]1CCNC1=O)c1cnc2cc(N3CCC3)ncc2c1 | 110 nM |  | 400 µg/mL (≈ 1280 µM) | 0.41 |  |  |  |  |  | > 3 h |  |  | 12 nM | 250 | < 1 ×10⁻⁶ cm/s |  |  |
| CC(C)(O)[C@H]1CC[C@H](NC(=O)c2cnc3cc(N4CC(F)C4)ncc3c2)CC1 | 170 nM |  | 13 µg/mL (≈ 33.6 µM) | 0.27 |  |  |  |  |  | > 3 h |  |  | 12 nM | 19.3 |  |  |  |
| COc1cc2ncc(C(=O)N[C@H]3CC[C@H](C(C)(C)O)CC3)cc2cn1 | 190 nM | < 2 | 85 µg/mL (≈ 248 µM) | 0.33 |  |  |  |  |  |  |  |  | 45 nM | 104 | 6.1 ×10⁻⁶ cm/s | > 3 h |  |
| CC(C)(O)[C@H]1CC[C@H](NC(=O)c2cnc3cc(C4CC4)ncc3c2)CC1 | 94 nM |  | 27 µg/mL (≈ 76.4 µM) | 0.16 |  | 22 mL/min/kg | 1.6 L/kg | 130% | 0.17 | > 3 h |  |  | 14 nM | 1040 | 16.5 ×10⁻⁶ cm/s |  | 1.1 h |
| CC(C)(O)[C@H]1CC[C@H](NC(=O)c2cnc3cc(N4CCC4)ncc3c2)CC1 | 24 nM |  | 11 µg/mL (≈ 29.9 µM) | 0.21 |  |  |  |  |  | 2.68 h |  |  | 3.9 nM | 41 | 7.8 ×10⁻⁶ cm/s |  |  |
| C[C@]1(O)C[C@@H](NC(=O)c2cnc3cc(N4CCC4)ncc3c2)C1 | 450 nM |  | 460 µg/mL (≈ 1470 µM) | 0.48 |  |  |  |  |  | > 3 h |  |  | 56 nM | 46.9 | 3.8 ×10⁻⁶ cm/s |  |  |
| C[C@H]1CCN1c1ccc2cc(C(=O)N[C@H]3CC[C@H](C(C)(C)O)CC3)cnc2n1 | 14 nM |  | 270 µg/mL (≈ 706 µM) | 0.22 |  |  |  |  |  | > 3 h |  |  | 4.4 nM | 73.7 | 2.5 ×10⁻⁶ cm/s |  |  |
| CC(C)(O)[C@H]1CC[C@H](NC(=O)c2cnc3nc(N4CCC4)ccc3c2)CC1 | 75 nM |  | 3 µg/mL (≈ 8.14 µM) | 0.2 |  |  |  |  |  | > 3 h |  |  | 5.3 nM | 72.5 | 2.3 ×10⁻⁶ cm/s |  |  |
| COc1ccc2cc(C(=O)N[C@H]3CC[C@H](C(C)(C)O)CC3)cnc2n1 | 150 nM | 2.58 | 24 µg/mL (≈ 69.9 µM) | 0.27 |  |  |  |  |  |  |  |  | 30 nM | 64.9 |  | > 3 h |  |
